“Also recorded” adds a separate entry of the source.
Experiments:
Assay type in all cases: in vivo, mouse
Female MRL/lpr mice [1] = test: Cutaneous model of lupus: female MRL/lpr mice treated orally once daily for 8 weeks;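 on all read-outs here: mice aged 12–14 weeks, randomized by anti-dsDNA antibody titer and urinary NGAL, treated groups compared against vehicle controls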; conditions: for % Survival / anti-dsDNA, anti-Ro and anti-smRNP auto-antibody titers / kidney injury markers (proteinuria and urinary NGAL) / cutaneous lesions (number of lesions on face, neck, head, ear; total lesions) / erythema of cutaneous lesions (neck, ear, total): oral once daily; for % Survival / cutaneous lesions (number of lesions on face, neck, head, ear; total lesions) / erythema of cutaneous lesions (neck, ear, total): 8 weeks; for anti-dsDNA, anti-Ro and anti-smRNP auto-antibody titers: 8 weeks (FIG. 3); for anti-dsDNA, anti-Ro and anti-smRNP auto-antibody titers / kidney injury markers (proteinuria and urinary NGAL): at 0.25 and 0.75 mg/kg Compound (I); for kidney injury markers (proteinuria and urinary NGAL): 8 weeks (FIG. 4); for cutaneous lesions (number of lesions on face, neck, head, ear; total lesions): versus vehicle (FIG. 1); for erythema of cutaneous lesions (neck, ear, total): versus vehicle (FIG. 2)
Female MRL/lpr mice [2] = test: Combination studies in MRL/lpr model of lupus, established disease; conditions: 5 weeks; for total number of cutaneous lesions: doses of Table 2 (FIG. 6); for neck erythema of cutaneous lesions: doses of Table 2 (FIG. 7); for ear erythema of cutaneous lesions: doses of Table 2 (FIG. 8); for total erythema of cutaneous lesions: doses of Table 2 (FIG. 9); for kidney injury marker proteinuria: doses of Table 2 (FIG. 10); for kidney injury marker urinary NGAL: doses of Table 2 (FIG. 11)
Experimental: Female MRL/lpr mice of 15 weeks of age were treated for 5 weeks. […] Total skin lesions score includes cumulative score of Neck/Back, Face, Head and Ear lesions

Female MRL/lpr mice [3] = test: Combination studies in MRL/lpr model of lupus, advanced disease; conditions: 5 weeks; for total number of cutaneous lesions: doses of Table 2 (FIG. 12); for neck erythema of cutaneous lesions: doses of Table 2 (FIG. 13, FIG. 14); for ear erythema of cutaneous lesions: doses of Table 2 (FIG. 15); for total erythema of cutaneous lesions: doses of Table 2 (FIG. 16)
Experimental: Female MRL/lpr mice of 16 weeks of age were treated for 5 weeks. […] Total skin lesions score includes cumulative score of Neck/Back, Face, Head and Ear lesions.

Compound | anti-dsDNA, anti-Ro and anti-smRNP auto-antibody titers (Female MRL/lpr mice [1]) | kidney injury markers (proteinuria and urinary NGAL) (Female MRL/lpr mice [1]) | cutaneous lesions (number of lesions on face, neck, head, ear; total lesions) (Female MRL/lpr mice [1]) | erythema of cutaneous lesions (neck, ear, total) (Female MRL/lpr mice [1]) | total number of cutaneous lesions (Female MRL/lpr mice [2]) | neck erythema of cutaneous lesions (Female MRL/lpr mice [2]) | ear erythema of cutaneous lesions (Female MRL/lpr mice [2]) | total erythema of cutaneous lesions (Female MRL/lpr mice [2]) | kidney injury marker proteinuria (Female MRL/lpr mice [2]) | kidney injury marker urinary NGAL (Female MRL/lpr mice [2]) | total number of cutaneous lesions (Female MRL/lpr mice [3]) | neck erythema of cutaneous lesions (Female MRL/lpr mice [3]) | ear erythema of cutaneous lesions (Female MRL/lpr mice [3]) | total erythema of cutaneous lesions (Female MRL/lpr mice [3]) | other results
Cc1c(-c2[nH]c3ccc(C4CCN(CC(N)=O)CC4)cc3c2C(C)C)cn2ncnc2c1C [Compound (I), 2-(4-(2-(7,8-dimethyl-[1,2,4]triazolo[1,5-a]pyridin-6-yl)-3-isopropyl-1H-indol-5-yl)piperidin-1-yl)acetamide] | Inhibition; also recorded: significant suppression | reduction; also recorded: Inhibition; also recorded: suppression | significant and robust dose-dependent suppression; also recorded: Dose-dependent inhibition | suppressed; also recorded: significant reduction; also recorded: Dose-dependent inhibition | suppressed | suppressed | suppressed | suppressed | suppression | suppression | suppressed | suppressed; also recorded: increased suppression of erythema of cutaneous lesions on the neck of mice compared the treatment with hydroxychloroquine | suppressed | suppressed | % Survival (Female MRL/lpr mice [1]; 0.005 mg/kg): 87%; % Survival (Female MRL/lpr mice [1]; 0.02 mg/kg): 93%; % Survival (Female MRL/lpr mice [1]; 0.25 mg/kg): 100%; % Survival (Female MRL/lpr mice [1]; 0.75 mg/kg): 100%; Type I IFN response gene expression (Female MRL/lpr mice [1]; at 0.25 and 0.75 mg/kg, blood, qPCR): inhibited; % Survival (Female MRL/lpr mice [2]; 0.25 mg/kg): 100%; % Survival (Female MRL/lpr mice [3]; 0.25 mg/kg): 93.3%
CC12C=CC(=O)C=C1CCC1C2C(O)CC2(C)C1CCC2(O)C(=O)CO (stereo not shown) [Prednisolone, 11,17-dihydroxy-17-(2-hydroxyacetyl)-10,13-dimethyl-6,7,8,9,10,11,12,13,14,15,16,17-dodecahydrocyclopenta[a] phenanthren-3-one] | inhibition | reduction | inhibition | reduction | suppression of cutaneous lesions but less than treatment with Compound (I) | suppression | suppression of erythema of cutaneous lesions on the ear of mice but less than treatment with Compound (I) | suppression | suppression | suppression | suppression of cutaneous lesions but less than treatment with Compound (I) | suppression | suppression of erythema of cutaneous lesions on the ear of mice but less than treatment with Compound (I) | suppression | % Survival (Female MRL/lpr mice [1]; 10 mg/kg): 100%; % Survival (Female MRL/lpr mice [2]; 1 mg/kg): 93.3%; % Survival (Female MRL/lpr mice [2]; 10 mg/kg): 93.3%; % Survival (Female MRL/lpr mice [3]; 1 mg/kg): 86.6%; % Survival (Female MRL/lpr mice [3]; 10 mg/kg): 93.3%
hydroxychloroquine [HCQ] | – | – | – | – | suppression of cutaneous lesions but less than treatment with Compound (I) | suppression | suppression of erythema of cutaneous lesions on the ear of mice but less than treatment with Compound (I) | suppression | suppression | suppression | suppression of cutaneous lesions but less than treatment with Compound (I) | suppression | suppression of erythema of cutaneous lesions on the ear of mice but less than treatment with Compound (I) | suppression | % Survival (Female MRL/lpr mice [2]; 100 mg/kg): 93.3%; % Survival (Female MRL/lpr mice [3]; 100 mg/kg): 100%

Source: patent publication US20230310408A1, “TLR7 INHIBITOR IN COMBINATION WITH PREDNISOLONE OR HYDROXYCHLOROQUINE FOR TREATING CUTANEOUS LUPUS ERYTHEMATOSUS” (priority 2020, published 2023)
